Laboratory results: the NIST ThermoML archive (doi:10.1021/je200922s)

Experiment: xn = mol fraction of the nth substance listed
Conditions: 101 kPa, Liquid; for viscosity: Capillary tube (Ostwald / Ubbelohde) method; for mass density: Vibrating tube method

CCn1cc[n+](C)c1.O=S(=O)([N-]S(=O)(=O)C(F)(F)F)C(F)(F)F + CN1CCCC1=O
Conditions | mass density [kg/m3] | viscosity [mPa·s]
293.15 K, x1 = 0.0978 | 1144.09 | 3.344
293.15 K, x1 = 0.1979 | 1228.99 | 5.561
293.15 K, x1 = 0.2957 | 1292.83 | 8.637
293.15 K, x1 = 0.395 | 1344.49 | 12.04
293.15 K, x1 = 0.493 | 1386.31 | 15.84
293.15 K, x1 = 0.5893 | 1420.55 | 20.06
293.15 K, x1 = 0.6917 | 1451.44 | 24.72
293.15 K, x1 = 0.798 | 1478.94 | 29.72
293.15 K, x1 = 0.9002 | 1502.24 | 34.93
298.15 K, x1 = 0.0978 | 1139.45 | 3.026
298.15 K, x1 = 0.1979 | 1224.19 | 4.943
298.15 K, x1 = 0.2957 | 1287.87 | 7.604
298.15 K, x1 = 0.395 | 1339.44 | 10.45
298.15 K, x1 = 0.493 | 1381.19 | 13.6
298.15 K, x1 = 0.5893 | 1415.41 | 17.07
298.15 K, x1 = 0.6917 | 1446.29 | 20.87
298.15 K, x1 = 0.798 | 1473.78 | 24.7
298.15 K, x1 = 0.9002 | 1497.09 | 28.7
303.15 K, x1 = 0.0978 | 1134.72 | 2.754
303.15 K, x1 = 0.1979 | 1219.33 | 4.457
303.15 K, x1 = 0.2957 | 1282.91 | 6.749
303.15 K, x1 = 0.395 | 1334.42 | 9.159
303.15 K, x1 = 0.493 | 1376.09 | 11.82
303.15 K, x1 = 0.5893 | 1410.27 | 14.7
303.15 K, x1 = 0.6917 | 1441.15 | 17.85
303.15 K, x1 = 0.798 | 1468.63 | 21.05
303.15 K, x1 = 0.9002 | 1491.96 | 24.29
308.15 K, x1 = 0.0978 | 1130.03 | 2.519
308.15 K, x1 = 0.1979 | 1214.47 | 4.028
308.15 K, x1 = 0.2957 | 1277.97 | 6.033
308.15 K, x1 = 0.395 | 1329.38 | 8.092
308.15 K, x1 = 0.493 | 1371 | 10.37
308.15 K, x1 = 0.5893 | 1405.15 | 12.81
308.15 K, x1 = 0.6917 | 1436.01 | 15.44
308.15 K, x1 = 0.798 | 1463.48 | 18.24
308.15 K, x1 = 0.9002 | 1486.83 | 20.83
313.15 K, x1 = 0.0978 | 1125.31 | 2.314
313.15 K, x1 = 0.1979 | 1209.6 | 3.647
313.15 K, x1 = 0.2957 | 1272.99 | 5.43
313.15 K, x1 = 0.395 | 1324.28 | 7.19
313.15 K, x1 = 0.493 | 1365.88 | 9.174
313.15 K, x1 = 0.5893 | 1399.96 | 11.26
313.15 K, x1 = 0.6917 | 1430.83 | 13.44
313.15 K, x1 = 0.798 | 1458.28 | 15.76
313.15 K, x1 = 0.9002 | 1481.67 | 18.12
318.15 K, x1 = 0.0978 | 1120.61 | 2.13
318.15 K, x1 = 0.1979 | 1204.73 | 3.325
318.15 K, x1 = 0.2957 | 1268 | 4.916
318.15 K, x1 = 0.395 | 1319.23 | 6.44
318.15 K, x1 = 0.493 | 1360.77 | 8.18
318.15 K, x1 = 0.5893 | 1394.81 | 9.989
318.15 K, x1 = 0.6917 | 1425.65 | 11.83
318.15 K, x1 = 0.798 | 1453.09 | 13.78
318.15 K, x1 = 0.9002 | 1476.54 | 15.79
323.15 K, x1 = 0.0978 | 1115.91 | 1.98
323.15 K, x1 = 0.1979 | 1199.83 | 3.079
323.15 K, x1 = 0.2957 | 1262.96 | 4.481
323.15 K, x1 = 0.395 | 1314.12 | 5.816
323.15 K, x1 = 0.493 | 1355.62 | 7.344
323.15 K, x1 = 0.5893 | 1389.73 | 8.911
323.15 K, x1 = 0.6917 | 1420.58 | 10.51
323.15 K, x1 = 0.798 | 1448.03 | 12.31
323.15 K, x1 = 0.9002 | 1471.41 | 13.95
